Measured values reported in BigSolDB 2.1.

CC1(C)COP(=O)(Oc2cccc(OP3(=O)OCC(C)(C)CO3)c2)OC1
solubility (mole fraction)
Conditions	293.15 K	298.15 K	303.15 K	308.15 K	313.15 K	318.15 K	323.15 K	328.15 K	333.15 K
in 1,2-dichloroethane	0.017	0.0199	0.0233	0.0273	0.0317	0.0366	0.0423	0.0491	0.0564
in acetone	0.00607	0.00796	0.0103	0.0131	0.0163	0.0201	0.0251	–	–
in acetonitrile	0.0102	0.0127	0.0153	0.0191	0.0231	0.0279	0.0342	0.0405	0.0491
in chloroform	0.0646	0.07	0.0751	0.0807	0.086	0.0923	0.0984	–	–
in ethanol	0.00179	0.0024	0.00313	0.00413	0.00541	0.00702	0.00902	0.0118	0.0151
in ethyl acetate	0.0008	0.00099	0.00123	0.00154	0.00189	0.00233	0.00284	0.00348	0.0042
in ethyl formate	0.00422	0.00508	0.00607	0.00713	0.00842	0.00988	0.0116	–	–
in methanol	0.0022	0.00357	0.00543	0.0085	0.0129	0.0187	0.0284	–	–
in methyl acetate	0.00229	0.00281	0.00347	0.00422	0.00511	0.0062	0.00745	–	–
in n-hexane	1e-05	2e-05	2e-05	4e-05	6e-05	8e-05	0.00012	–	–
in n-propanol	0.00096	0.00135	0.00187	0.0026	0.00356	0.00495	0.00658	0.00899	0.0118
in toluene	0.00016	0.0002	0.00026	0.00032	0.0004	0.00049	0.00061	0.00076	0.0009
